Results: BindingDB's records for PubMed 3010074 (Warner-Lambert/Parke-Davis Pharmaceutical Research, 1986)

Columns and labels:
Adenosine receptor A2a [1] = target: Adenosine receptor A2a (Homo sapiens, UniProt P29274)
Adenosine receptor A2a [2] = target: Adenosine receptor A2a (Rattus norvegicus, UniProt P30543)
Adenosine receptor A2a (Rattus norvegicus, UniProt P30543), sequence (P30543 whole entry): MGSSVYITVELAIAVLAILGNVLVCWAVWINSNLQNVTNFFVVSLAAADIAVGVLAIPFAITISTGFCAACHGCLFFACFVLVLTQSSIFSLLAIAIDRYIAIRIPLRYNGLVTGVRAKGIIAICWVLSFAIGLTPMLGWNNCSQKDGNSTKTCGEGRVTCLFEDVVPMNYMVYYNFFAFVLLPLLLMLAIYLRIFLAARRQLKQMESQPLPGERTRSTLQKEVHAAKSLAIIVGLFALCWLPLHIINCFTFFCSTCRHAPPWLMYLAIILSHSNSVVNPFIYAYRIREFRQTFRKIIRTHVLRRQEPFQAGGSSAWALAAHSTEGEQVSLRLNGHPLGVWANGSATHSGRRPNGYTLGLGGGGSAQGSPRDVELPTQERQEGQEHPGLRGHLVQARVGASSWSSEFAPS

Adenosine receptor A2a (Homo sapiens, UniProt P29274), sequence (P29274 whole entry): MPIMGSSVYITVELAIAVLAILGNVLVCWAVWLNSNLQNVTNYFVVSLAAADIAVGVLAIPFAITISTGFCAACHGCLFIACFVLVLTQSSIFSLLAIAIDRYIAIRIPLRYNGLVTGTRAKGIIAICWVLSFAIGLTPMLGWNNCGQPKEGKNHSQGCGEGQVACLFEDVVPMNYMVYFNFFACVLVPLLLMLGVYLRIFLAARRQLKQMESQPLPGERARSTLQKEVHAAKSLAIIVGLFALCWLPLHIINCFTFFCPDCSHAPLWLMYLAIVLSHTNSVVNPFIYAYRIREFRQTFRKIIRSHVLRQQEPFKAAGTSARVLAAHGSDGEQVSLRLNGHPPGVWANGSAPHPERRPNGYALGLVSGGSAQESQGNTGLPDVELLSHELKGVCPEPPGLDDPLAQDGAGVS

| Compound | Ki (Adenosine receptor A2a [1]) | Ki (Adenosine receptor A2a [2]) |
| --- | --- | --- |
| O=c1nc2[nH]c3ccccc3nc-2c(=O)[nH]1 | 2.72 µM | – |
| Cn1c(=O)c2[nH]c(-c3ccc(Cl)cc3)nc2n(C)c1=O | 0.371 µM | – |
| O=c1[nH]c2c(ncn2[C@@H]2O[C@H](CO)[C@@H](O)[C@H]2O)c2nccn12 [1,N6-Ehteno-2-oxoado] | – | > 10 µM |
| CCCn1c(=O)c2nc(-c3ccc(N)cc3N)[nH]c2n(CCC)c1=O | 0.214 µM | – |
| COc1ccc(-c2nc(N)c3ncn([C@@H]4O[C@H](CO)[C@@H](O)[C@H]4O)c3n2)cc1 [2-(4-Methoxyphenyl)ado (CV-1674)] | – | 0.605 µM |
| CCCc1nc2c([nH]1)c(=O)n(C)c(=O)n2C | > 10 µM | – |
| Nc1nc(NC2CCCC2)nc2c1ncn2[C@@H]1O[C@H](CO)[C@@H](O)[C@H]1O | – | 0.462 µM |
| CNc1ncnc2c1ncn2[C@H]1C[C@H](O)[C@@H](CO)O1 [2'-Deoxy-N6-methylado] | – | > 10 µM |
| Cn1c(N)c2ncn([C@@H]3O[C@H](CO)[C@@H](O)[C@H]3O)c2nc1=O [1-Methyl-2-oxoado] | – | 3.25 µM |
| CSC[C@H]1O[C@@H](n2cnc3c(N)nc(Cl)nc32)[C@H](O)[C@@H]1O [2-Chloro-5'-methylthioado] | – | 1.88 µM |
| Nc1ncnc2c1ncn2[C@@H]1O[C@H](CI)[C@@H](O)[C@H]1O [5'-Deoxy-5'-iodoado] | – | 0.637 µM |
| Cn1c(=O)c2[nH]c(-c3ccc(S(=O)(=O)O)cc3)nc2n(C)c1=O [4-(1,3-Dimethyl-2,6-dioxo-2,3,6,7-tetrahydro-1H-purin-8-yl)-benzenesulfonic acid] | > 10 µM | – |
| Cn1c(=O)c2c(ncn2CCCl)n(C)c1=O [7-(2-Chloroethyl)theophylline] | > 10 µM | – |
| CC(C)Cn1c(=O)n(C)c(=O)c2[nH]cnc21 [1-methyl-3-(2-methylpropyl)-2,3,6,7-tetrahydro-1H-purine-2,6-dione] | > 10 µM | – |
| Cn1c(=O)c2[nH]c(-c3ccc(N)cc3)nc2n(C)c1=O | 0.391 µM | – |
| Cn1c(=O)[nH]c2nc[nH]c2c1=O [1-Methyl-3,9-dihydro-purine-2,6-dione(1-methylxanthine)] | > 10 µM | – |
| CC(=O)OCC1O[C@@H](n2cnc3c(N)ncnc32)[C@H](O)[C@@H]1O (some centres undefined) [5'-O-Acetylado] | – | 4.51 µM |

The remaining lines, values ahead:

| Ki (Adenosine receptor A2a [1]) | Ki (Adenosine receptor A2a [2]) | Compound |
| --- | --- | --- |
| – | 0.285 µM | OC[C@H]1O[C@@H](n2cnc3c(NCc4ccccc4)ncnc32)[C@H](O)[C@@H]1O [N6-benzylado] |
| 0.0919 µM | – | CCCn1c(=O)c2[nH]c(-c3ccc(Cl)cc3N)nc2n(CCC)c1=O [NSC_92411] |
| – | 0.331 µM | Nc1nc(=O)[nH]c2c1ncn2[C@@H]1O[C@H](CO)[C@@H](O)[C@H]1O [CAS_1818-71-9] |
| 1.58 µM | – | Cn1c(=O)c2nc(-c3cccs3)[nH]c2n(C)c1=O [CAS_267102] |
| – | 4.3 µM | Nc1ncnc2c1ncn2[C@@H]1O[C@H](NC(=O)C2CCCCC2)[C@@H](O)[C@H]1O [Ado-5'-cyclohexylcarboxamide] |
| – | 0.335 µM | Nc1ncnc2c1ncn2[C@@H]1O[C@H](CO[N+](=O)[O-])[C@@H](O)[C@H]1O [5'-O-Nitroado] |
| 1.43 µM | – | Cn1c(=O)c2nc(-c3ccccc3N)[nH]c2n(C)c1=O [8-(2-Aminophenyl)theophylline] |
| 1.56 µM | – | CCCCNc1c(C(=O)OCC)c(C)nc2c1cnn2CC [NSC_5522] |
| > 10 µM | – | CCn1c(=O)c2nc[nH]c2n(CC)c1=O [NSC_101420] |
| – | > 10 µM | Nc1nccc2c1ncn2[C@@H]1O[C@H](CO)[C@@H](O)[C@H]1O [CAS_6736-58-9] |
| – | 0.0575 µM | NC(=O)CCOC[C@H]1O[C@@H](n2cnc3c(N)ncnc32)[C@H](O)[C@@H]1O [Ado-5'-(2-hydroxyethyl)carboxamide] |
| – | > 10 µM | Nc1nccc2c1SCN2[C@@H]1O[C@H](CO)[C@@H](O)[C@H]1O [7-Thia-9deazaado] |
| 0.419 µM | – | COc1ccc(-c2nc3c([nH]2)c(=O)n(C)c(=O)n3C)cc1 [8-(4-methoxyphenyl)-1,3-dimethyl-1H-purine-2,6(3H,7H)-dione] |
| 2.52 µM | – | Cn1c(=O)c2[nH]c(-c3ccc([N+](=O)[O-])cc3)nc2n(C)c1=O [8-(4-Nitrophenyl)theophylline] |
| – | 0.12 µM | NC(=O)OC[C@H]1O[C@@H](n2cnc3c(N)ncnc32)[C@H](O)[C@@H]1O [Ado-5'-carboxamide] |
| 2.24 µM | – | CCCCNc1c(C(=O)OCC)cnc2c1cnn2CC [ethyl 4-(butylamino)-1-ethyl-1H-pyrazolo[3,4-b]pyridine-5-carboxylate] |
| – | 0.387 µM | CCC(=O)OC[C@H]1O[C@@H](n2cnc3c(N)ncnc32)[C@H](O)[C@@H]1O [Ado-5'-ethylcarboxylate] |
| > 10 µM | – | CCn1c(=O)c2c(ncn2C)n(C)c1=O [NSC_93219] |
| – | 0.0134 µM | Nc1ncnc2c1ncn2[C@@H]1O[C@H](CNC(=O)C2CC2)[C@@H](O)[C@H]1O [Ado-5'-cyclopropylcarboxamide] |
| 7.26 µM | – | Cn1c(=O)c2[nH]c(-c3ccc(C(=O)O)cc3)nc2n(C)c1=O [8-(4-Carboxyphenyl)theophylline] |
| > 10 µM | – | CCCCn1c(=O)c2c(ncn2C)n(C)c1=O [NSC_70835] |
| – | 1.1 µM | CSC[C@H]1O[C@@H](n2cnc3c(N)ncnc32)[C@H](O)[C@@H]1O [(2R,3R,4S,5S)-2-(6-aminopurin-9-yl)-5-(methylsulfanylmethyl)oxolane-3,4-diol] |
